Test results from patent US20260273028A1, “PEROXIDASE COMPOSITIONS CONTAINING IMPROVED ENHANCING AGENTS” (FLEN HEALTH PHARMA NV, priority 2022, published 2026).

Legend:
[1] = tested on: Aspergillus niger ATCC®16404™; test: MBC determination, broth microdilution with CFU enumeration; format: cell-based; conditions: A. niger
Protocol: (§1) The minimal bactericidal concentration (MBC) is defined as the lowest concentration of an antimicrobial agent that results in a complete killing of the microbial population (determined via standard CFU enumeration techniques) after overnight incubation. This endpoint measurement is used, together with the MIC (see above), to define the microbial susceptibility towards an antimicrobial agent. Here, the antimicrobial agent is a combination of the natural enzymes GOX+LPO.
(§2) To determine the MBC of the described combinations, a classical broth microdilution assay combined with standard CFU enumeration techniques was used to determine the susceptibility of a series of microbes commonly detected in infected wounds, including (a) the Gram-positive bacterium Staphylococcus aureus ATCC® 6538™ (results shown below), (b) the Gram-negative bacterium Pseudomonas aeruginosa ATCC®9027™ (results shown below), (c) the yeast Candida albicans ATCC®10231™ (results shown below), and (d) the fungus Aspergillus niger ATCC®16404™ (results shown below). In brief, the broth microdilution assay was set up as previously described (see 2.1). After incubation, the MBC was determined by investigating the presence of viable microorganisms at the MIC and following higher concentrations (MICx2, MICx4, and so on) using standard CFU enumeration techniques. For each combination evaluated, this test was repeated at least 5 times. The collected data were further analyzed in MS Excel. Mean concentration data (expressed as log CFU/ml) were visualized in a table format in which the MBC was highlighted.

[2] = tested on: Pseudomonas aeruginosa ATCC®9027™; test: as above; format: cell-based; conditions: P. aeruginosa
Protocol: as §1, §2

[3] = tested on: Aspergillus niger ATCC®16404™; test: MIC determination, broth microdilution, GOX+LPO with potentiator candidate; format: cell-based; conditions: A. niger
Protocol: (§3) The minimum inhibitory concentration (MIC) is defined as the lowest concentration of an antimicrobial agent that results in a complete inhibition of microbial growth (determined via visual evaluation or absorbance measurements) after overnight incubation. This endpoint measurement is used to define the microbial susceptibility towards an antimicrobial agent. Here, the antimicrobial agent is a combination of the natural enzymes GOX+LPO.
(§4) To determine the MIC of the described combinations, a classical broth microdilution assay was used to determine the susceptibility of a series of microbes commonly detected in infected wounds, including (a) the Gram-positive bacterium Staphylococcus aureus ATCC® 6538™ (results shown below), (b) the Gram-negative bacterium Pseudomonas aeruginosa ATCC®9027™ (results shown below), (c) the yeast Candida albicans ATCC®10231™ (results shown below), and (d) the fungus Aspergillus niger ATCC®16404™ (results shown below). In brief, a […] serial dilution of the enzymatic GOX+LPO solution was prepared in a transparent, flat-bottomed 96-well test plate with final concentrations ranging from 0.005 to 0.00000977% (v/v). To each well, a fixed volume of the enzymatic substrate containing 3,3% (w/v) glucose and 0,084% (w/v) potassium iodide, as well as the microbial inoculum with an OD600 of 0.1 was added. In the event the enzyme combination was evaluated in the presence of a potentiator candidate, the latter was added together with the enzymatic substrate in a final concentration ranging from 100 to 0,00125% (v/v). For each combination evaluated, a blank (no addition of microbial inoculum) was included. Positive (inoculum only) and negative (background solution only) were included to evaluate the performance of the test and to select the enzymatic GOX+LPO concentration at which no microbial growth is detected (i.e., absorbance equal to that of the background solution only). Then, the 96-well test plate was incubated for 24 hours at 37° C. (S. aureus, P. aeruginosa and C. albicans) or 25° C. (A. niger). After incubation, the absorbance of each well was measured using a plate spectrophotometer (Spectramax ID3, Molecular Devices). For each combination evaluated, this test was repeated at least 5 times. The collected data were further analyzed in MS Excel. Mean absorbance data were visualized in a table format in which the MIC was highlighted.

[4] = tested on: Staphylococcus aureus ATCC® 6538™; test: as above; format: cell-based; conditions: S. aureus
Protocol: as §3, §4

[5] = tested on: Pseudomonas aeruginosa ATCC®9027™; test: as above; format: cell-based; conditions: P. aeruginosa
Protocol: as §3, §4

[6] = tested on: Aspergillus niger ATCC®16404™; test: Absolute microbial counts in function of enzyme solution concentration; format: cell-based; conditions: 0.005%-0.000156% (v/v) GOX+LPO
Text: (§5) Absolute microbial counts in function of concentration of the antimicrobial agent tested are useful to monitor the bactericidal and fungicidal efficacy of that agent.
(§6) To determine the absolute number of live microorganisms in function of different enzyme solution concentrations tested, a classical broth microdilution assay combined with standard CFU enumeration techniques was used to determine the susceptibility of a series of microbes commonly detected in infected wounds, including (a) the Gram-positive bacterium Staphylococcus aureus ATCC® 6538™ (results shown below), (b) the Gram-negative bacterium Pseudomonas aeruginosa ATCC®9027™ (results shown below), (c) the yeast Candida albicans ATCC®10231™ (results shown below), and (d) the fungus Aspergillus niger ATCC®16404™ (results shown below). In brief, the broth microdilution assay was set up as previously described (see 2.1). After incubation, the absolute microbial count at the MIC and following higher concentrations (MICx2, MICx4, and so on) was determined using standard CFU enumeration techniques. For each combination evaluated, this test was repeated at least 5 times. The collected data were further analyzed in MS Excel and expressed as log CFU/ml. Mean results were plotted in function of enzyme solution concentration.

[7] = tested on: Pseudomonas aeruginosa ATCC®9027™; test: as above; format: cell-based; conditions: for reduction in absolute P. aeruginosa counts compared to reference and guaiacol solution: 0.005%-0.0000391% (v/v) GOX+LPO
Text: as §5, §6

[8] = exemplary values; cited from earlier work

Structure (SMILES)	MIC: GOX+LPO enzyme solution needed to completely inhibit growth ([4]; enhancer 0.0025% to 0.00125%)	increase in MIC compared to reference or guaiacol solution ([4]; enhancer 0.0025% to 0.00125%) [×]	LogP (octanol/water partition coefficient) [8]	MBC: GOX+LPO enzyme solution needed ([1]; enhancer 1%-0.01%)	increase in MBC compared to reference ([1]; enhancer 1%-0.01%) [×]	MBC: GOX+LPO enzyme solution needed ([2]; enhancer 0.0025-0.00125%)	increase in MBC compared to reference or guaiacol solution ([2]; enhancer 0.0025-0.00125%) [×]	MBC: GOX+LPO enzyme solution needed ([2]; enhancer 0.01-0.005%)	increase in MBC compared to reference or guaiacol solution ([2]; enhancer 0.01-0.005%) [×]	MIC: GOX+LPO enzyme solution needed to completely inhibit growth ([3]; enhancer 1%-0.01%)	increase in MIC compared to reference ([3]; enhancer 1%-0.01%) [×]	MIC: GOX+LPO enzyme solution needed to completely inhibit growth ([4]; enhancer 10%)	increase in MIC compared to reference or guaiacol solution ([4]; enhancer 10%) [×]	MIC: GOX+LPO enzyme solution needed to completely inhibit growth ([5]; enhancer 0.0025-0.00125%)	increase in MIC compared to reference or guaiacol solution ([5]; enhancer 0.0025-0.00125%) [×]	MIC: GOX+LPO enzyme solution needed to completely inhibit growth ([5]; enhancer 0.01-0.005%)	increase in MIC compared to reference or guaiacol solution ([5]; enhancer 0.01-0.005%) [×]	reduction in absolute A. niger counts compared to reference ([6]; enhancer 1-0.01%)	reduction in absolute P. aeruginosa counts compared to reference and guaiacol solution ([7]; enhancer 0.0025-0.00125%)	further results
CC[C@H](C)[C@H](N)C(=O)O [Isoleucine, isoleucine]	0.0000391 % (v/v)	2	LogP = −1.72																	MBC: GOX+LPO enzyme solution needed ([1]; enhancer 1%-0.005%): 0.000156 % (v/v); increase in MIC compared to reference (MBC section) ([1]; enhancer 1%-0.005%): 2 ×; MBC: GOX+LPO enzyme solution needed ([2]; enhancer 0,1%): 0.000625 % (v/v); increase in MBC compared to reference ([2]; enhancer 0,1%): 2 ×; MBC: GOX+LPO enzyme solution needed ([2]; enhancer 1%): 0.000156 % (v/v); increase in MBC compared to reference ([2]; enhancer 1%): 8 ×; MIC: GOX+LPO enzyme solution needed to completely inhibit growth ([3]; enhancer 1%-0.005%): 0.000156 % (v/v); increase in MIC compared to reference ([3]; enhancer 1%-0.005%): 2 ×; MIC: GOX+LPO enzyme solution needed to completely inhibit growth ([4]; enhancer 0.5% to 0.005%): 0.0000391 % (v/v); increase in MIC compared to reference or guaiacol solution ([4]; enhancer 0.5% to 0.005%): 2 ×; MIC: GOX+LPO enzyme solution needed to completely inhibit growth ([5]; enhancer 0,1%): 0.000625 % (v/v); increase in MIC compared to reference ([5]; enhancer 0,1%): 2 ×; MIC: GOX+LPO enzyme solution needed to completely inhibit growth ([5]; enhancer 1%): 0.000156 % (v/v); increase in MIC compared to reference ([5]; enhancer 1%): 8 ×; reduction in absolute A. niger counts compared to reference ([6]; enhancer 1-0.005%): stronger reduction; reduction in absolute P. aeruginosa counts compared to reference ([7]; enhancer 0,1%, 0,005%-0.000625% (v/v) GOX+LPO): stronger reduction; reduction in absolute P. aeruginosa counts compared to reference ([7]; enhancer 1%, 0,005%-0.000156% (v/v) GOX+LPO): stronger reduction
O=C(O)[C@@H]1CCCN1 [Proline, proline]			LogP = −2.54	0.000156 % (v/v)	2	0.000625 % (v/v)	2	0.000625 % (v/v)	2	0.000156 % (v/v)	2	0.0000391 % (v/v)	2	0.000625 % (v/v)	2	0.000625 % (v/v)	2	stronger reduction	stronger reduction	MIC: GOX+LPO enzyme solution needed to completely inhibit growth ([4]; enhancer 0.01%): 0.0000195 % (v/v); increase in MIC compared to reference or guaiacol solution ([4]; enhancer 0.01%): 4 ×; reduction in absolute P. aeruginosa counts compared to reference and guaiacol solution ([7]; enhancer 0.01-0.001%): stronger reduction
N[C@@H](CO)C(=O)O [Serine, serine]	0.0000391 % (v/v)	2	LogP = −3.07	0.000156 % (v/v)	2	0.000625 % (v/v)	2	0.000625 % (v/v)	2	0.000156 % (v/v)	2	≤ 0.0000977 % (v/v)	≥ 6	0.000625 % (v/v)	2	0.000625 % (v/v)	2	stronger reduction	stronger reduction	MIC: GOX+LPO enzyme solution needed to completely inhibit growth ([4]; enhancer 0.01% to 0.005%): 0.0000391 % (v/v); increase in MIC compared to reference or guaiacol solution ([4]; enhancer 0.01% to 0.005%): 2 ×; reduction in absolute P. aeruginosa counts compared to reference and guaiacol solution ([7]; enhancer 0.01-0.005%): stronger reduction
